Among the data in PubChem BioAssay (NCI) are TGI values, retold here.

Test systems include TK-10 renal; HOP-92 NSCLC; SK-MEL-28 melanoma; MDA-MB-231 breast; SR leukemia; HOP-62 NSCLC.
What all share (test): NCI anticancer screen, dose series, 48 h

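Protocol summary: plate cells (96-well), add compound at 5 concentrations, incubate 48 h, interpolate endpoints linearly. The concentration for full growth arrest is given as TGI.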

`COc1ccccc1/[N+]([O-])=C/c1ccccc1OC(=S)S`: the TGI is over 100 µM in the assay on TK-10 renal; 61.8 µM in the assay with HOP-92 NSCLC; over 100 µM with SK-MEL-28 melanoma; over 100 µM in the assay on MDA-MB-231 breast; over 100 µM in the assay on SR leukemia.

In the case of `COc1ccc2c(c1)nc1n2C(c2c(F)cccc2F)SC1` (stereo not given), the TGI with TK-10 renal, in the assay on HOP-92 NSCLC, in the assay on SK-MEL-28 melanoma, in the assay with HOP-62 NSCLC, in the assay on MDA-MB-231 breast and in the assay with SR leukemia was over 100 µM throughout.

`Cc1ccc([N+](=O)[O-])cc1S(=O)(=O)Nc1ccc(C2=NOC(c3ccccc3)C2)cc1` (stereo not given): the TGI in the assay on HOP-92 NSCLC is 61.2 µM; in the assay on SK-MEL-28 melanoma, over 100 µM; in the assay on HOP-62 NSCLC, 22.9 µM; in the assay with MDA-MB-231 breast, 88.3 µM; with SR leukemia, 12.1 µM.

`COC(=O)C1=C(O)C(C(=O)OC)[C@]2(O)[C@H](C(=O)OC)[C@H]1C[C@@H](c1ccc(Cl)cc1Cl)[C@H]2C(=O)OC` (stereo not given in full): the TGI came to 26.2 µM in the assay on TK-10 renal; 23.8 µM in the assay with HOP-92 NSCLC; 53.6 µM in the assay with SK-MEL-28 melanoma; 20.9 µM in the assay on HOP-62 NSCLC; 60 µM with MDA-MB-231 breast; 19.2 µM with SR leukemia.

On to `N#Cc1cccc(Nc2ccccc2SSc2ccccc2Nc2cccc(C#N)c2)c1`, for which the TGI with TK-10 renal is over 21.5 µM; in the assay on HOP-92 NSCLC, 19 µM; in the assay with SK-MEL-28 melanoma, over 21.5 µM; with HOP-62 NSCLC, over 21.5 µM; with MDA-MB-231 breast, over 21.5 µM.

As to `CC(=O)N1c2ccccc2C2=NN=C(N(C)C)SC21` (stereo not given), the TGI was 21 µM with TK-10 renal; 15.3 µM in the assay with SK-MEL-28 melanoma; 23.4 µM in the assay on HOP-62 NSCLC; 11 µM with MDA-MB-231 breast; 21.2 µM in the assay with SR leukemia.

`COc1ccc(C[C@H]2NC[C@H](OC(C)=O)[C@H]2OC(C)=O)cc1`: the TGI in the assay with TK-10 renal was over 35.3 µM; with HOP-92 NSCLC it was 0.356 µM; in the assay with SK-MEL-28 melanoma it was 0.562 µM; with HOP-62 NSCLC, 2.75 µM; in the assay on MDA-MB-231 breast, 1.49 µM; in the assay on SR leukemia, 3.45 µM.

`COC1/C=C/C(C)C(C(C)C(OC)C(C)CCC(=O)C(C)C(CC(=O)O)OC)OC(=O)/C=C/C=C(\C)CC(OC)C(OC)C2=CC(=O)O[C@@H](C(C)C(OC)CC(OC)/C=C/C(C)C(O)C1)[C@H]2O` (stereo not given in full): the TGI is 0.306 µM in the assay on TK-10 renal; 0.0917 µM in the assay on HOP-92 NSCLC; 0.267 µM with SK-MEL-28 melanoma; 0.468 µM with HOP-62 NSCLC; 0.754 µM in the assay on MDA-MB-231 breast; over 1.07 µM with SR leukemia.

For `Cc1nc(C)c(N2CCN(C(=O)NC(CCC(=O)O)C(=O)O)CC2)c(=O)[nH]1` (stereo not given), the TGI with TK-10 renal, in the assay with HOP-92 NSCLC, with SK-MEL-28 melanoma, in the assay with HOP-62 NSCLC, in the assay with MDA-MB-231 breast and in the assay on SR leukemia was over 100 µM throughout.

With `CNc1nc2c(C)ccc3nc(N(C)C)nc-3c2n1C`, the TGI in the assay on TK-10 renal, in the assay with HOP-92 NSCLC, with SK-MEL-28 melanoma, in the assay on HOP-62 NSCLC and in the assay with MDA-MB-231 breast was over 10 µM each time.

In the case of `O=S(=O)(O)c1ccc(N=Nc2c(O)ccc3ccccc23)cc1`, the TGI in the assay on TK-10 renal, in the assay with HOP-92 NSCLC, with SK-MEL-28 melanoma, in the assay with HOP-62 NSCLC, with MDA-MB-231 breast and with SR leukemia was over 100 µM throughout.

Take `CCCCC1=C(C(=O)N2CCOCC2)C2(OCCO2)C1Cl` (stereo not given): the TGI is over 100 µM with TK-10 renal; over 100 µM with HOP-92 NSCLC; 53.6 µM in the assay with SK-MEL-28 melanoma; over 100 µM in the assay with HOP-62 NSCLC; over 100 µM with MDA-MB-231 breast.

`O=c1[nH]nc(Cc2ccccc2)n1N=C1CCCCC1`: the TGI with TK-10 renal, in the assay with HOP-92 NSCLC, in the assay on SK-MEL-28 melanoma, in the assay on HOP-62 NSCLC and in the assay on MDA-MB-231 breast was over 100 µM throughout.

As for `CN(C)Cc1cc(N=Nc2c(Cl)cccc2Cl)ccc1O`, the TGI in the assay with TK-10 renal, with HOP-92 NSCLC, in the assay with SK-MEL-28 melanoma, with HOP-62 NSCLC, in the assay with MDA-MB-231 breast and with SR leukemia was over 100 µM throughout.

In the case of `CCOC(=O)/C(=C\NC[C@@H](C)O)c1nc2ccccc2[nH]1`, the TGI with TK-10 renal is over 100 µM; with HOP-92 NSCLC, over 100 µM; with SK-MEL-28 melanoma, over 100 µM; in the assay with HOP-62 NSCLC, over 100 µM; with SR leukemia it was 84.3 µM.

With `O=[N+]([O-])/C(C(Cl)=C(Cl)Cl)=C(\Nc1cccc2cccnc12)Sc1ccccc1`, the TGI in the assay with SK-MEL-28 melanoma is 36 µM; in the assay on HOP-62 NSCLC it was 80.7 µM; in the assay with MDA-MB-231 breast, over 100 µM.

In the case of `CN(C)c1ccc(/C=C(\NC(=O)c2ccccc2)c2nc3ccccc3c(=O)o2)cc1`, the TGI in the assay with TK-10 renal, in the assay on HOP-92 NSCLC, with SK-MEL-28 melanoma, in the assay on HOP-62 NSCLC and with MDA-MB-231 breast was over 100 µM throughout.

For `O=C(/C=C/c1ccsc1)c1cccs1`, the TGI in the assay with TK-10 renal was over 100 µM; in the assay with HOP-92 NSCLC, 93.5 µM; with SK-MEL-28 melanoma it was 46.1 µM; in the assay on HOP-62 NSCLC, over 100 µM; in the assay with MDA-MB-231 breast, over 100 µM; in the assay on SR leukemia, over 10 µM.

`COc1ccccc1-c1n[nH]c(-c2ccccc2O)n1`: the TGI in the assay on TK-10 renal, in the assay on HOP-92 NSCLC, in the assay with SK-MEL-28 melanoma, with HOP-62 NSCLC and in the assay with MDA-MB-231 breast was over 100 µM each time.

Turning to `N#Cc1c(-c2cccc(Br)c2)cc(-c2ccc(Cl)cc2)nc1N`, the TGI is 45.2 µM in the assay with TK-10 renal, 32.4 µM in the assay with HOP-92 NSCLC, 79.1 µM with HOP-62 NSCLC and 46.3 µM with SR leukemia.
